The numbers were not newly measured in patent US20050065094A1, “Use of telmisartan for the prevention and treatment of vascular headache” (Boehringer Ingelheim International GmbH, priority 2003, published 2005), which cites them from elsewhere.

Data set [1] relates to patients suffering from migraine. Conditions: placebo-controlled crossover.
Data set [2] concerns patients having mild/moderate hypertension. Conditions: placebo-controlled.

As for `CCOc1nc2cccc(C(=O)O)c2n1Cc1ccc(-c2ccccc2-c2nnn[nH]2)cc1` [candesartan], the tolerability profile result in data set [1] is given as “good tolerability profile”.
In the case of `CCCCC1=NC2(CCCC2)C(=O)N1Cc1ccc(-c2ccccc2-c2nnn[nH]2)cc1` [irbesartan], in data set [2], the incidence of headache result is “significant reduction in the incidence of headache”.
